Reference: ChEMBL document CHEMBL1138669, “Dipeptidyl peptidase IV inhibitors for the treatment of diabetes” (J Med Chem, 2004)

Assay: Half life was determined
Format: ADME
Settings: rat

With `N#Cc1ccc(NCCNCC(=O)N2CCC[C@H]2C#N)nc1` the half-life was 50 min.
